Source: patent US11485751B2, “Apramycin derivatives” (WAYNE STATE UNIVERSITY, priority 2017, dated 2022)
Values after ≈ are worked out from the molar mass of the structure shown.

What was measured:
[1] = test system: AG290, Enterobacter cloacae; experiment: MIC reference strain AG290; assay type: cell-based; settings: Enterobacter cloacae; reference strain; read-out: MIC AG290 E. cloacae
Procedure, shortened: (§1)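 Broth microdilution per CLSI standard (aerobic bacteria); value reported is the MIC.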

AG031 P. aer. APH(3′)-II = experiment: Antibacterial activity, clinical isolate AG031; assay type: cell-based; design: unit not given here
Procedure, shortened: (§2)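 Broth microdilution, CLSI dilution method for aerobic bacteria; read-out is minimal inhibitory concentration (MIC).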

[2] = test system: Engineered E. coli pH430 WT; experiment: Activity, engineered E. coli pH430 WT; assay type: cell-based; settings: wild type
Procedure, shortened: (§3)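 Strains are tested by broth microdilution under the CLSI M07-A10 procedure. The lowest inhibitory concentration is recorded as the MIC.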

[3] = test system: E. coli AG153 AAC(3)-II APH(3′)-II rmtB; experiment: Activity against G1405-methylated 16S-rRNA, clinical isolate AG153; assay type: cell-based
Procedure, shortened: as §3

[4] = test system: SZ380, Mycobacterium smegmatis; experiment: MIC reference strain SZ380; assay type: cell-based; settings: Mycolicibacterium smegmatis, reference strain; read-out: MIC SZ380 M. smegmatis
Procedure, shortened: as §1

[5] = test system: AG225, Acinetobacter baumannii pittii; experiment: MIC reference strain AG225; assay type: cell-based; settings: Acinetobacter baumannii, reference strain; read-out: MIC AG225 A. baumannii
Procedure, shortened: as §1

[6] = test system: human mitochondrial ribosomes; experiment: in-vitro translation assay, human mitochondrial (human chimeric) ribosomes; assay type: biochemical
Procedure, shortened: (§4)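 Reported values are IC50s for inhibition of in-vitro translation. For the mitochondrial target, human chimeric ribosomes were used. For the cytosolic target, rabbit reticulocyte ribosomes were used.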

[7] = test system: AG212, Escherichia coli ATCC25922; experiment: MIC reference strain AG212; assay type: cell-based; settings: Escherichia coli; reference strain ATCC25922; read-out: MIC AG212 E. coli
Procedure, shortened: as §1

[8] = test system: human cytosolic ribosomes; experiment: in-vitro translation assay, human cytosolic ribosomes; assay type: biochemical
Procedure, shortened: as §4

[9] = test system: clinical isolates carrying AAC(3)-IV; experiment: MIC broth microdilution, AAC(3)-IV; assay type: cell-based; settings: clinical isolates, IMM Univ. Zurich; AAC(3)-IV; read-out: MIC AAC(3)-IV
Procedure, shortened: (§5)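 Clinical isolates supplied by the Zurich Institute of Medical Microbiology were tested for MIC (μg/ml) using CLSI M07-A10 broth microdilution.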

[10] = test system: Enterob. AG302 AAC(3)-II AAC(6′)-I rmtC; experiment: Activity against G1405-methylated 16S-rRNA, clinical isolate AG302; assay type: cell-based
Procedure, shortened: as §3

[11] = test system: AG220, Pseudomonas aeruginosa ATCC27853; experiment: MIC reference strain AG220; assay type: cell-based; settings: Pseudomonas aeruginosa, ATCC27853, reference strain ATCC27853; read-out: MIC AG220 P. aeruginosa
Procedure, shortened: as §1

[12] = test system: K. pneum. AG269 AAC(3)-II AAC(6′)-I rmtB; experiment: Activity against G1405-methylated 16S-rRNA, clinical isolate AG269; assay type: cell-based
Procedure, shortened: as §3

[13] = test system: A baum. AG227 APH(3′)-I armA; experiment: Activity against G1405-methylated 16S-rRNA, clinical isolate AG227; assay type: cell-based
Procedure, shortened: as §3

[14] = test system: clinical isolates carrying APH(3′)-II; experiment: MIC broth microdilution, APH(3′)-II; assay type: cell-based; settings: clinical isolates, IMM Univ. Zurich; APH(3′)-II; read-out: MIC APH(3′)-II
Source text: (§6) Minimal inhibitory concentrations (MIC) have been determined by broth microdilution assays (CLSI. Methods for Dilution Antimicrobial Susceptibility Tests for Bacteria That Grow Aerobically; Approved Standard—Tenth Edition. CLSI document M07-A10. Wayne, Pa.: Clinical and Laboratory Standards Institute; 2015.).
(§7) Minimal inhibitory concentrations (MICs, […]) against clinical isolates from Institute of Medical Microbiology, Univ. Zurich, and the IC50 values for bacterial, human mitochondrial and human cytosolic ribosomes are indicated.

[15] = test system: clinical isolates carrying APH(3′)-I; experiment: MIC broth microdilution, APH(3′)-I; assay type: cell-based; settings: IMM Univ. Zurich
Source text: as §6, §7

[16] = test system: clinical isolates carrying APH(3′)-III; experiment: MIC broth microdilution, APH(3′)-III; assay type: cell-based; settings: IMM Univ. Zurich
Source text: as §6, §7

[17] = test system: Engineered E. coli pH424 armA; experiment: Activity against G1405-methylated 16S-rRNA, E. coli pH424 armA; assay type: cell-based
Procedure, shortened: as §3

bacterial ribosomes = experiment: in-vitro translation assay, bacterial ribosomes; assay type: biochemical
Procedure, shortened: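 Cell-free translation; IC50 read-out. Mito = human chimeric ribosomes; cytosolic = rabbit reticulocyte ribosomes; bacterial ribosomes run in the same assay format.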

[18] = test system: AG215, Klebsiella pneumonia; experiment: MIC reference strain AG215; assay type: cell-based; settings: Klebsiella pneumoniae, reference strain; read-out: MIC AG215 K. pneumonia
Procedure, shortened: as §1

AG001 E. coli WT = experiment: Antibacterial activity, clinical isolate AG001; assay type: cell-based; design: unit not given here
Procedure, shortened: as §2

WT clinical isolates = experiment: MIC broth microdilution, WT; assay type: cell-based; settings: read-out: MIC WT, clinical isolates, IMM Univ. Zurich; wild type
Procedure, shortened: as §5

AG038 MRSA = experiment: Antibacterial activity, clinical isolate AG038; assay type: cell-based; design: unit not given here
Procedure, shortened: as §2

ATCC19977 M. abcessus = experiment: MIC reference strain ATCC19977; assay type: cell-based; settings: read-out: MIC ATCC19977 M. abcessus
Procedure, shortened: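 Compounds are serially diluted in liquid medium in microplates, bacteria are added, and the lowest concentration preventing growth is recorded as the MIC (CLSI procedure).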

[19] = test system: clinical isolates carrying APH(3′)-VI; experiment: MIC broth microdilution, APH(3′)-VI; assay type: cell-based; settings: IMM Univ. Zurich
Source text: as §6, §7

[20] = test system: Engineered E. coli AG103 armA; experiment: Activity against G1405-methylated 16S-rRNA, E. coli AG103 armA; assay type: cell-based
Procedure, shortened: as §3

[21] = test system: AG039 MRSA AAC(6′)-I ANT(4′)-I; experiment: Antibacterial activity, clinical isolate AG039; assay type: cell-based
Procedure, shortened: as §2

[22] = test system: AG033 P. aer. APH(3′)-II AAC(6′)-I; experiment: Antibacterial activity, clinical isolate AG033; assay type: cell-based; design: unit not given here
Procedure, shortened: as §2

[23] = test system: Engineered E. coli pH427 rmtF; experiment: Activity against G1405-methylated 16S-rRNA, E. coli pH427 rmtF; assay type: cell-based
Procedure, shortened: as §3

AG003 E. coli AAC(3)-II = experiment: Antibacterial activity, clinical isolate AG003; assay type: cell-based
Procedure, shortened: as §2

[24] = test system: Engineered E. coli pH426 rmtC; experiment: Activity against G1405-methylated 16S-rRNA, E. coli pH426 rmtC; assay type: cell-based
Procedure, shortened: as §3

AG032 P. aer. APH(3′)-II = experiment: Antibacterial activity, clinical isolate AG032; assay type: cell-based; design: unit not given here
Procedure, shortened: as §2

[25] = test system: Engineered E. coli pH425 rmtB; experiment: Activity against G1405-methylated 16S-rRNA, E. coli pH425 rmtB; assay type: cell-based
Procedure, shortened: as §3

AG163 E. coli APH(3′)-I = experiment: Antibacterial activity, clinical isolate AG163; assay type: cell-based
Source text: as §6
Table 4 and 5 show the antibacterial activity of the compounds of the invention against bacterial reference strains (table 4) and against representative clinical isolates (table 5).

[26] = test system: AG042 MRSA AAC(6′)-I ANT(4′)-I APH(2′); experiment: Antibacterial activity, clinical isolate AG042; assay type: cell-based; design: unit not given here
Procedure, shortened: as §2

AG055 E. coli WT = experiment: Antibacterial activity, clinical isolate AG055; assay type: cell-based; design: unit not given here
Procedure, shortened: as §2

AG173 E. coli AAC(3)-IV = experiment: Antibacterial activity, clinical isolate AG173; assay type: cell-based
Procedure, shortened: as §2

Row | Structure (SMILES) | MIC [1] | Antibacterial activity AG031 P. aer. APH(3′)-II (AG031 P. aer. APH(3′)-II) | Activity E. coli pH430 WT [2] | Activity E. coli AG153 AAC(3)-II APH(3′)-II rmtB [3] | MIC [4] | MIC [5] | IC50 [6] | MIC [7] | IC50 [8] | MIC [9] | MIC [11] | MIC [14] | MIC [15] | MIC [16] | Activity E. coli pH424 armA [17] | IC50 (bacterial ribosomes) | MIC [18] | Antibacterial activity AG001 E. coli WT (AG001 E. coli WT) | Antibacterial activity AG038 MRSA (AG038 MRSA) | MIC [19] | other results
1 | CNC1C(O)C2O[C@H](O[C@@H]3C(N)C[C@@H](N)C(O)[C@H]3OC3O[C@H](CN)[C@@H](O)[C@H]3O)C(N)C[C@@H]2O[C@@H]1O[C@H]1OC(CO)[C@@H](N)[C@H](O)C1O (stereo partly shown) [DC201] | 2 µg/mL | 16 | 8 | 8 | 0.25 µg/mL | 4 to 8 µg/mL | 113 µM | 4 µg/mL | 81 µM | 16 µg/mL (≈ 23.9 µM) | 4 to 8 µg/mL | 4 µg/mL (≈ 5.96 µM) | 2 to 4 µg/mL (≈ 2.98 to 5.96 µM) | 1 µg/mL (≈ 1.49 µM) | 2 | 120 nM | 2 µg/mL | 4 | 2-4 | 4 µg/mL (≈ 5.96 µM) | Activity Enterob. AG302 AAC(3)-II AAC(6′)-I rmtC [10]: 4; Activity K. pneum. AG269 AAC(3)-II AAC(6′)-I rmtB [12]: 4; Activity A baum. AG227 APH(3′)-I armA [13]: 8-16; MIC (WT clinical isolates): 8 µg/mL (≈ 11.9 µM); MIC (ATCC19977 M. abcessus): 1 to 2 µg/mL (≈ 1.49 to 2.98 µM)
2 | CNC1C(OC2OC(CO)C(N)C(O)C2O)OC2CC(N)C(OC3C(N)CC(N)C(O)C3OC3OCC(O)C3O)OC2C1O (stereo not drawn) [DC146, 5-O-β-D—(Erythrofuranosyl) apramycin] | 4 µg/mL | 64 | 8 | – | – | 8 µg/mL | 215 µM | 16 µg/mL | 321 µM | 32 µg/mL (≈ 49.9 µM) | 32 µg/mL | 4 µg/mL (≈ 6.23 µM) | 4 µg/mL (≈ 6.23 µM) | 1 µg/mL (≈ 1.56 µM) | 4 | 90 nM | 4 µg/mL | 16 | 16-32 | 8 µg/mL (≈ 12.5 µM) | Activity E. coli AG103 armA [20]: 1; Antibacterial activity AG039 MRSA AAC(6′)-I ANT(4′)-I [21]: 16-32; Antibacterial activity AG033 P. aer. APH(3′)-II AAC(6′)-I [22]: 64-128; Activity E. coli pH427 rmtF [23]: 4; Antibacterial activity AG003 E. coli AAC(3)-II (AG003 E. coli AAC(3)-II): 16; Activity E. coli pH426 rmtC [24]: 8; Antibacterial activity AG032 P. aer. APH(3′)-II (AG032 P. aer. APH(3′)-II): 64; Activity E. coli pH425 rmtB [25]: 4; Antibacterial activity AG163 E. coli APH(3′)-I (AG163 E. coli APH(3′)-I): 8; Antibacterial activity AG042 MRSA AAC(6′)-I ANT(4′)-I APH(2′) [26]: 16; Antibacterial activity AG055 E. coli WT (AG055 E. coli WT): 16; Antibacterial activity AG173 E. coli AAC(3)-IV (AG173 E. coli AAC(3)-IV): 128
3 | CNC1C(O)C2O[C@H](O[C@@H]3C(N)C[C@@H](N)C(O)[C@H]3O[C@@H]3O[C@H](CNCCN)[C@@H](O)[C@H]3O)C(N)C[C@@H]2O[C@@H]1O[C@H]1OC(CO)[C@@H](N)[C@H](O)C1O (stereo partly shown) [DC214] | 1 to 2 µg/mL | 8-16 | 4 | 2 | 0.25 µg/mL | 8 µg/mL | 178 µM | 2 µg/mL | 85 µM | 8 to 16 µg/mL (≈ 11.2 to 22.4 µM) | 8 µg/mL | 4 µg/mL (≈ 5.6 µM) | 2 µg/mL (≈ 2.8 µM) | 1 µg/mL (≈ 1.4 µM) | 2 | 90 nM | 1 µg/mL | 2 | 4 | 4 µg/mL (≈ 5.6 µM) | Activity Enterob. AG302 AAC(3)-II AAC(6′)-I rmtC [10]: 1-2; Activity K. pneum. AG269 AAC(3)-II AAC(6′)-I rmtB [12]: 2; Activity A baum. AG227 APH(3′)-I armA [13]: 4-8; Antibacterial activity AG173 E. coli AAC(3)-IV (AG173 E. coli AAC(3)-IV): 16
